Reference: ChEMBL document CHEMBL1158271, “Lupane derivatives from Lophopetalum wallichii with farnesyl protein transferase inhibitory activity” (J Nat Prod, 1996)
≈ marks a conversion by molar mass, not a printed value.

Assays:
[1] = Inhibition of recombinant protein farnesyltransferase-mediated [3H]FPP transfer after 30 mins by scintillation counting
ZR-75-1 = experiment: Cytotoxicity against human ZR-75-1 cells; format: functional, cell-based
Lu1 = experiment: Cytotoxicity against human Lu1 cells; format: functional, cell-based
Col2 = experiment: Cytotoxicity against human Col2 cells; format: functional, cell-based
SK-MEL-2 = experiment: Cytotoxicity against human SK-MEL-2 cells; format: functional, cell-based
LNCaP = experiment: Cytotoxicity against human LNCAP cells; format: functional, cell-based
A-431 = experiment: Cytotoxicity against human A431 cells; format: functional, cell-based
HT = experiment: Cytotoxicity against human HT cells; format: functional, cell-based
[2] = Cytotoxicity against human U373 cells; format: functional, cell-based, U-373MG ATCC; details: U373 MG
KB = experiment: Cytotoxicity against human KB cells; format: functional, cell-based
[3] = Cytotoxicity against human KBVIN cells; format: functional, cell-based
[4] = Cytotoxicity against human BC1 cells; format: functional, cell-based

Compound | IC50 [1] | EC50 (ZR-75-1) | EC50 (Lu1) | EC50 (Col2) | EC50 (SK-MEL-2) | EC50 (LNCaP) | EC50 (A-431) | EC50 (HT) | EC50 [2] | EC50 (KB) | EC50 [3] | EC50 [4]
CC1(C)C(=O)CC[C@]2(C)[C@H]3CC[C@@H]4[C@H]5[C@H]6[C@@H](C[C@]5(C)CC[C@@]4(C)[C@]3(C)CC[C@@H]12)OC(=O)[C@]61CO1 [20-EPI-OCHRACEOLIDE B] | > 100 µg/mL |  |  |  |  |  |  |  |  |  |  | 
C=C(C)[C@@H]1CC[C@]2(CO)CC[C@]3(C)[C@H](CC[C@@H]4[C@@]5(C)CC[C@H](O)C(C)(C)[C@@H]5CC[C@]43C)[C@@H]12 [BETULIN] | 1 µg/mL |  |  |  |  |  |  |  |  |  |  | 
C=C1C(=O)O[C@@H]2C[C@]3(C)CC[C@]4(C)[C@H](CC[C@@H]5[C@@]6(C)CC[C@H](O)C(C)(C)[C@@H]6CC[C@]54C)[C@H]3[C@H]12 [DIHYDRO OCHRACEOLIDE A] | > 100 µg/mL | 3 µg/mL (≈ 6.6 µM) | 8.9 µg/mL (≈ 19.6 µM) | 12.1 µg/mL (≈ 26.6 µM) | > 20 µg/mL | 14.5 µg/mL (≈ 31.9 µM) | 6.8 µg/mL (≈ 15 µM) | 9.6 µg/mL (≈ 21.1 µM) | 9.1 µg/mL (≈ 20 µM) | > 20 µg/mL | > 20 µg/mL | 10.2 µg/mL (≈ 22.4 µM)
C=C(C)[C@@H]1CC[C@]2(C)CC[C@]3(C)[C@H](CC[C@@H]4[C@@]5(C)CC[C@H](O)C(C)(C)[C@@H]5CC[C@]43C)[C@@H]12 [LUPEOL] | 65 µg/mL |  |  |  |  |  |  |  |  |  |  | 
C=C1C(=O)O[C@@H]2C[C@]3(C)CC[C@]4(C)[C@H](CC[C@@H]5[C@@]6(C)CCC(=O)C(C)(C)[C@@H]6CC[C@]54C)[C@H]3[C@H]12 [OCHRACEOLIDE A] | > 100 µg/mL | 4.5 µg/mL (≈ 9.94 µM) | 16.1 µg/mL (≈ 35.6 µM) | > 20 µg/mL | > 20 µg/mL | 13.4 µg/mL (≈ 29.6 µM) | > 20 µg/mL | 8.6 µg/mL (≈ 19 µM) | 6.7 µg/mL (≈ 14.8 µM) | > 20 µg/mL | 17.2 µg/mL (≈ 38 µM) | 7.9 µg/mL (≈ 17.5 µM)
